Measured values as given in PMC10534582, “A Pharmacokinetic Study of Sixteen Major Bioactive Components of Jinshui-Huanxian Granules in Pulmonary Fibrosis Model and Control Rats Using Orbitrap Fusion Mass Spectrometry” (Molecules, 2023).
Like-named read-outs stand apart in the source and are kept apart here. One block for each compound: values may come before it.

Columns and labels:
[1] = Pharmacokinetics of JHG components in pulmonary fibrosis (PF) model rats after intragastric administration of JHGs (plasma, Orbitrap Fusion MS); assay type: in vivo, Sprague Dawley (SD) rats; settings: for Cmax, PF model group compared with the control group: medium dose selected for comparison; for pharmacokinetic process (versus dosage): low, medium, high doses of JHGs
Protocol: (§1) Healthy male Sprague Dawley (SD) rats of SPF grade (240 ± 20 g) were purchased from Sipeifu (Beijing, China) Biotechnology Co., Ltd. (Beijing, China), Certificate of Conformity No.: SCYK (Beijing, China) 2019-0015, Animal Quality Certificate No.: 110324220102348616. They were housed in the Animal Center of Henan University of Traditional Chinese Medicine, which passed the ethical audit, ethics number: DWLL202208003, breeding Co. 24 °C, relative humidity 50 ± 2%. The animals fasted for 12 h before the experiment and drank water freely. All feeding and experimental studies on experimental animals were in accordance with the regulations on the Management of Experimental Animals in Henan Province.
The PF model in rats was replicated by reference to the conclusion tracheal intubation method in the literature. After the rats were anesthetized, bleomycin (BLM) (5 mg/kg) was used as an induction agent and followed the tracheal intubation method. BLM solution was aspirated with a 1 mL syringe and injected into the indwelling syringe. A total of 0.3 mL of air was rapidly pushed into the syringe, the rats were immediately stroked upright so that the BLM solution was evenly distributed in both lungs. BLM was given on day 0 for modeling, then gavage was taken after day 28, with fasting without water for 12 h before sampling. The histopathological examination was performed to verify the construction of the PF model. The rats were anesthetized by the abdominal cavity, then the lung tissues were violently shocked by opening the chest, and the right lower lobe of the lung was taken and fixed in 4% formaldehyde solution, then dehydrated by sucrose gradient, paraffin-embedded, and sectioned. H&E and Masson staining were performed to observe the degree of alveolitis of lung tissue and the degree of pulmonary fibrosis, respectively. The inflammation and fibrosis of lung tissues was observed under the light microscope.
(§2) Twenty-four healthy male SD rats or PF model rats, weighing 240 ± 20 g, fasted for 12 h before the experiment and drank water freely. Both kinds of rats were randomly divided into four groups. Blank group: equal dose of water by intragastric, low dose; administration group: rats were given the equivalent human dose of JHGs by intragastric, i.e., 10.8 g of raw drug/kg/d (5.70 g/kg/d); medium-dose administration group: 2 times the human equivalent dose of JHGs by intragastric, i.e., 21.6 g of raw drug/kg/d (11.41 g/kg/d); high-dose administration group: 4 times the human equivalent dose of JHG, i.e., 43.2 g of raw drug/kg/d (22.81 g/kg/d). Blood was collected from the tail vein before and 0.083, 0.25, 0.5, 0.75, 1, 1.5, 2, 3, 4, 6, 8, 12, 18, and 24 h after dosing, respectively. A total of 0.5 mL was placed in a heparin sodium centrifuge tube. Whole blood was left for 30 min and then centrifuged in a low-temperature freezing centrifuge (4 °C, 3000 r/min) for 15 min. The upper layer of plasma was collected and stored in a refrigerator at −80 °C.
(§3) We added 50 μL of internal standard solution and 800 μL of methanol, shook for 15 min, then centrifuged at 12,000 r/min for 10 min, took the supernatant, dried in a centrifuge concentrator, added 50 μL of the initial mobile phase to the residue, dissolved, centrifuged, then separated the upper layer of the solution used as the test solution. A total of 5 μL test solution was taken into the sample for analysis. For each compound with a certain dosage, the same procedure is repeated six times in parallel. The concentration in plasma was calculated by the internal standard method.
Accucore C18 (100 mm × 2.1 mm, 2.6 μm) column at 25 °C, the mobile phase was methanol (A)-0.1% formic acid aqueous solution (B). The gradient elution program was 0–4 min (65% B-40% B), 4–5 min (40% B-40% B), 5–6 min (40% B-28% B), and 6–7 min (28% B-19% B), 7–7.5 min (19% B-10% B), 7.5–11 min (10% B-0% B), the flow rate was 0.2 mL/min, and the injection volume was 5 μL. […]

[2] = Pharmacokinetics of JHG components in control rats after intragastric administration of JHGs (plasma, Orbitrap Fusion MS); assay type: in vivo, Sprague Dawley (SD) rats; settings: for pharmacokinetic process (Cmax and AUCs versus dosage): low, medium, high doses of JHGs; for Tmax / AUC(0-inf) / AUC(0-t) / half-life / MRT last / MRT inf / Cmax: male, rat, plasma, po; for MRT last: read-out: MRT(0-t); for MRT inf: read-out: MRT(0-∞); for Cmax: intragastric JHGs
Protocol: as §1, §2, §3
Accucore C18 (100 mm × 2.1 mm, 2.6 μm) column at 25 °C, the mobile phase was methanol (A)-0.1% formic acid aqueous solution (B). The gradient elution program was 0–4 min (65% B-40% B), 4–5 min (40% B-40% B), 5–6 min (40% B-28% B), and 6–7 min (28% B-19% B), 7–7.5 min (19% B-10% B), 7.5–11 min (10% B-0% B), the flow rate was 0.2 mL/min, and the injection volume was 5 μL.
The ion source was an electrospray ionization source (ESI). Nitrogen acted as a carrier gas. The sheath gas pressure was 35 Arb. The auxiliary gas pressure was 7 Arb. The spray voltage was 3.50 kv(+), 2.50 kv(-). The ion transport tube temperature was regulated at 300 °C. Gasification temperature was 275 °C. The resolution was 50,000. The scanning mode was set as SIM mode. The optimized parameters obtained are in Table 5.
Under the established Orbitrap Fusion MS method, the pharmacokinetics of JHG in rats were studied to investigate the dynamic changes of the active components in rats. The pharmacokinetic parameters of each component in each dosing group were calculated by […] model analysis using Kinetica 5.1 (Innaphase, Waltham, MA, USA) pharmacokinetic analysis software. The pharmacotemporal curves were plotted by the plotting software. SPSS 19.0 (IBM, Armonk, NY, USA) was used to analyze all the parameters. Independent sample tests were performed after natural logarithmic transformation for AUC0–t, Cmax. The nonparametric Mann–Whitney test was applied for Tmax, t½, and MRT0–t. p < 0.05 was considered statistically significant.

[3] = Sprague-Dawley, after administration of JHGs, read-out: Tmax of all dosages
[4] = Sprague Dawley, 5.7 g/kg/day, JHGs low dose 5.70 g/kg/d
[5] = Sprague Dawley, 5.7 g/kg/day, JHGs low dose 5.70 g/kg/d, read-out: Tmax
[6] = Sprague Dawley, 5.7 g/kg/day, low dose 5.70 g/kg/d, n=6 (1st of 3 stacked values)
[7] = Sprague Dawley, 11.41 g/kg/day, JHGs medium dose 11.41 g/kg/d
[8] = Sprague Dawley, 11.41 g/kg/day, JHGs medium dose 11.41 g/kg/d, read-out: Tmax
[9] = Sprague Dawley, 11.41 g/kg/day, medium dose 11.41 g/kg/d, n=6 (2nd of 3 stacked values)
[10] = Sprague Dawley, 22.81 g/kg/day, JHGs high dose 22.81 g/kg/d
[11] = Sprague Dawley, 22.81 g/kg/day, JHGs high dose 22.81 g/kg/d, read-out: Tmax
[12] = Sprague Dawley, 22.81 g/kg/day, high dose 22.81 g/kg/d, n=6 (3rd of 3 stacked values)

- pharmacokinetic process (Cmax and AUCs versus dosage) [2]: linear pharmacokinetic process
- Tmax [2, 3]: ≤ 2 h
- shape of plasma concentration–time curve ([1]; PF model group, medium- and high-dose groups, compared to control group): double peaks phenomenon
Structure (SMILES): CC(C)=CCC[C@](C)(O[C@@H]1O[C@H](CO[C@@H]2O[C@@H](CO)[C@H](O)[C@H]2O)[C@@H](O)[C@H](O)[C@H]1O)[C@H]1CC[C@]2(C)[C@@H]1[C@H](O)C[C@@H]1[C@@]3(C)CC[C@H](O[C@@H]4O[C@H](CO)[C@@H](O)[C@H](O)[C@H]4O[C@@H]4O[C@H](CO)[C@@H](O)[C@H](O)[C@H]4O)C(C)(C)[C@@H]3CC[C@]12C [Ginsenoside Rc]

- Tmax, PF model group compared with the control group ([1]; PF model vs control rats): decreased significantly
Structure (SMILES): COc1ccc([C@@H]2CC(=O)c3c(O)cc(O[C@@H]4O[C@H](CO[C@@H]5O[C@@H](C)[C@H](O)[C@@H](O)[C@H]5O)[C@@H](O)[C@H](O)[C@H]4O)cc3O2)cc1O [Hesperidin]

- pharmacokinetic process (Cmax and AUCs versus dosage) [2]: linear pharmacokinetic process
- Tmax [2, 3]: ≤ 2 h
- Tmax ([1]; male, Sprague-Dawley, rat, plasma, po, PF model rats, after administration of JHGs, read-out: Tmax of all dosages): ≤ 2 h
Structure (SMILES): COc1ccc(-c2oc3c(CC=C(C)C)c(O[C@@H]4O[C@H](CO)[C@@H](O)[C@H](O)[C@H]4O)cc(O)c3c(=O)c2O[C@@H]2O[C@@H](C)[C@H](O)[C@@H](O)[C@H]2O)cc1 [Icariin]

- Clearances ([2]; JHGs high dose 22.81 g/kg/d): 18.7 ± 3.83 mL/min/kg
- Vss ([2]; JHGs high dose 22.81 g/kg/d): 9.42 ± 1.03 L
- Clearances ([2]; JHGs low dose 5.70 g/kg/d): 15.2 ± 3 mL/min/kg
- Vss ([2]; JHGs low dose 5.70 g/kg/d): 8.97 ± 2.22 L
- Clearances ([2]; JHGs medium dose 11.41 g/kg/d): 15.7 ± 1.7 mL/min/kg
- Vss ([2]; JHGs medium dose 11.41 g/kg/d): 9.67 ± 3.39 L
- pharmacokinetic process (Cmax and AUCs versus dosage) [2]: linear pharmacokinetic process
- AUC(0-inf) [2, 4]: 35.8 ± 5.5 ng·h/mL
- AUC(0-t) [2, 4]: 32.2 ± 4.75 ng·h/mL
- half-life [2, 4]: 6.86 ± 0.48 h
- MRT last [2, 4]: 7.15 ± 0.14 h
- MRT inf [2, 4]: 9.81 ± 0.84 h
- Tmax [2, 5]: 1 h
- Cmax [2, 6]: 5.67 ± 1 ng/mL
- AUC(0-inf) [2, 7]: 61.5 ± 8.17 ng·h/mL
- AUC(0-t) [2, 7]: 54.9 ± 7.53 ng·h/mL
- half-life [2, 7]: 8.24 ± 4.54 h
- MRT last [2, 7]: 7.03 ± 0.29 h
- MRT inf [2, 7]: 10.4 ± 4.06 h
- Tmax [2, 8]: 2 h
- Cmax [2, 9]: 9.31 ± 1.05 ng/mL
- AUC(0-inf) [2, 10]: 104 ± 22.4 ng·h/mL
- AUC(0-t) [2, 10]: 96.4 ± 18.1 ng·h/mL
- half-life [2, 10]: 6.1 ± 0.77 h
- MRT last [2, 10]: 6.64 ± 0.33 h
- MRT inf [2, 10]: 8.58 ± 0.98 h
- Tmax [2, 11]: 3 h
- Cmax [2, 12]: 18.4 ± 1.98 ng/mL
- pharmacokinetic process (versus dosage) ([1]; PF model rats): linear pharmacokinetic process
- Tmax, PF model group compared with the control group ([1]; PF model vs control rats): increased about three times
Structure (SMILES): C[C@@H]1O[C@@H](O[C@@H]2[C@@H](O)[C@H](OCCc3ccc(O)c(O)c3)O[C@H](COC(=O)/C=C/c3ccc(O)c(O)c3)[C@H]2O)[C@H](O)[C@H](O)[C@H]1O [Isoacteoside]

Continued, compound first:

Structure (SMILES): OC[C@H]1O[C@@H](O[C@@H]2OC=C[C@H]3[C@H](O)[C@@H]4O[C@]4(CO)[C@@H]23)[C@H](O)[C@@H](O)[C@@H]1O [Catalpol]
- Cmax, PF model group compared with the control group ([1]; PF model vs control rats): significantly decreased

Structure (SMILES): CC(C)=CCC[C@](C)(O[C@@H]1O[C@H](CO[C@@H]2O[C@H](CO)[C@@H](O)[C@H](O)[C@H]2O)[C@@H](O)[C@H](O)[C@H]1O)[C@H]1CC[C@]2(C)[C@@H]1[C@H](O)C[C@@H]1[C@@]3(C)CC[C@H](O[C@@H]4O[C@H](CO)[C@@H](O)[C@H](O)[C@H]4O[C@@H]4O[C@H](CO)[C@@H](O)[C@H](O)[C@H]4O)C(C)(C)[C@@H]3CC[C@]12C [Ginsenoside Rb1]
- pharmacokinetic process (Cmax and AUCs versus dosage) [2]: linear pharmacokinetic process
- pharmacokinetic process (versus dosage) ([1]; PF model rats): linear pharmacokinetic process
- Cmax, PF model group compared with the control group ([1]; PF model vs control rats): significantly decreased
- AUCs, PF model group compared with the control group ([1]; PF model vs control rats, p < 0.05): significantly decreased

Structure (SMILES): CC1CCC2N(C1)CC1C3CC4C(CC(O)C5CC(O)CCC54C)C3CCC1C2(C)O (centres unmarked) [Peimine]
- Clearances ([2]; JHGs high dose 22.81 g/kg/d): 88.7 ± 12.2 mL/min/kg
- Vss ([2]; JHGs high dose 22.81 g/kg/d): 60.06 ± 7.12 L
- Clearances ([2]; JHGs low dose 5.70 g/kg/d): 31 ± 7.83 mL/min/kg
- Vss ([2]; JHGs low dose 5.70 g/kg/d): 131.39 ± 53.45 L
- Clearances ([2]; JHGs medium dose 11.41 g/kg/d): 75.5 ± 9.5 mL/min/kg
- Vss ([2]; JHGs medium dose 11.41 g/kg/d): 61.2 ± 9.95 L
- pharmacokinetic process (Cmax and AUCs versus dosage) [2]: linear pharmacokinetic process
- AUC(0-inf) [2, 4]: 24.7 ± 5.52 ng·h/mL
- AUC(0-t) [2, 4]: 7.38 ± 2.13 ng·h/mL
- half-life [2, 4]: 52.1 ± 30.7 h
- MRT last [2, 4]: 11.1 ± 0.12 h
- MRT inf [2, 4]: 75.3 ± 41.8 h
- Tmax [2, 5]: 4 h
- Cmax [2, 6]: 0.57 ± 0.22 ng/mL
- AUC(0-inf) [2, 7]: 17.6 ± 2.24 ng·h/mL
- AUC(0-t) [2, 7]: 14.6 ± 1.9 ng·h/mL
- half-life [2, 7]: 8.02 ± 0.39 h
- MRT last [2, 7]: 8.8 ± 0.32 h
- MRT inf [2, 7]: 13.5 ± 0.58 h
- Tmax [2, 8]: 3.33 ± 0.58 h
- Cmax [2, 9]: 1.49 ± 0.26 ng/mL
- AUC(0-inf) [2, 10]: 29.9 ± 4.92 ng·h/mL
- AUC(0-t) [2, 10]: 26.6 ± 4.11 ng·h/mL
- half-life [2, 10]: 7.23 ± 0.62 h
- MRT last [2, 10]: 8.43 ± 0.11 h
- MRT inf [2, 10]: 11.3 ± 0.63 h
- Tmax [2, 11]: 2.67 ± 0.58 h
- Cmax [2, 12]: 2.53 ± 0.56 ng/mL
- MRT(0–t), PF model group compared with the control group ([1]; PF model vs control rats): decreased
